Measured values as given in ChEMBL document CHEMBL5143743, “Novel Thioxothiazolo[3,4-a]quinazolin-5(4H)-one Derivatives as BKCa Channel Activators for Urinary Incontinence” (ACS Med Chem Lett, 2022).
Active and inactive are the calls of the source. The rule behind the calls is not given here.

Experiments:
AD293 [1] = assay: Activation of human Slo G803D/N806K mutant expressed in human AD293 cells assessed as increase in channel activity by measuring change in relative fluorescence unit at 6 uM measured at 2 secs interval for 80 secs by FluxOR based fluorescence assay; type: cell-based; settings: filed as activator, time 80.0 sec
[2] = (§1) Activation of human Slo G803D/N806K mutant expressed in human AD293 cells measured at 2 secs interval for 120 secs by FluxOR based fluorescence assay; type: cell-based
AD293 [3] = assay: Activation of human Slo G803D/N806K mutant expressed in human AD293 cells assessed as initial velocity of channel activation at 6 uM measured at 2 secs interval for 4 secs by FluxOR based fluorescence assay; type: cell-based; settings: filed as activator, time 4.0 sec
[4] = Stability in human liver microsomes assessed as parent compound remaining at 1 uM measured after 30 mins in presence of NADPH regeneration system by LC-MS/MS analysis; type: ADME, Microsome; settings: read-out: Stability
[5] = biological target: Calcium-activated potassium channel subunit alpha-1 (Rattus norvegicus) (UniProt Q62976); assay: Activation of rat Slo expressed in Xenopus laevis oocytes assessed as shortened channel opening 10 uM with 100 mV holding potential by patch-clamp electrophysiological method; type: cell-based; settings: Oocyte, filed as activator
Calcium-activated potassium channel subunit alpha-1 (Rattus norvegicus), sequence (Q62976 whole entry): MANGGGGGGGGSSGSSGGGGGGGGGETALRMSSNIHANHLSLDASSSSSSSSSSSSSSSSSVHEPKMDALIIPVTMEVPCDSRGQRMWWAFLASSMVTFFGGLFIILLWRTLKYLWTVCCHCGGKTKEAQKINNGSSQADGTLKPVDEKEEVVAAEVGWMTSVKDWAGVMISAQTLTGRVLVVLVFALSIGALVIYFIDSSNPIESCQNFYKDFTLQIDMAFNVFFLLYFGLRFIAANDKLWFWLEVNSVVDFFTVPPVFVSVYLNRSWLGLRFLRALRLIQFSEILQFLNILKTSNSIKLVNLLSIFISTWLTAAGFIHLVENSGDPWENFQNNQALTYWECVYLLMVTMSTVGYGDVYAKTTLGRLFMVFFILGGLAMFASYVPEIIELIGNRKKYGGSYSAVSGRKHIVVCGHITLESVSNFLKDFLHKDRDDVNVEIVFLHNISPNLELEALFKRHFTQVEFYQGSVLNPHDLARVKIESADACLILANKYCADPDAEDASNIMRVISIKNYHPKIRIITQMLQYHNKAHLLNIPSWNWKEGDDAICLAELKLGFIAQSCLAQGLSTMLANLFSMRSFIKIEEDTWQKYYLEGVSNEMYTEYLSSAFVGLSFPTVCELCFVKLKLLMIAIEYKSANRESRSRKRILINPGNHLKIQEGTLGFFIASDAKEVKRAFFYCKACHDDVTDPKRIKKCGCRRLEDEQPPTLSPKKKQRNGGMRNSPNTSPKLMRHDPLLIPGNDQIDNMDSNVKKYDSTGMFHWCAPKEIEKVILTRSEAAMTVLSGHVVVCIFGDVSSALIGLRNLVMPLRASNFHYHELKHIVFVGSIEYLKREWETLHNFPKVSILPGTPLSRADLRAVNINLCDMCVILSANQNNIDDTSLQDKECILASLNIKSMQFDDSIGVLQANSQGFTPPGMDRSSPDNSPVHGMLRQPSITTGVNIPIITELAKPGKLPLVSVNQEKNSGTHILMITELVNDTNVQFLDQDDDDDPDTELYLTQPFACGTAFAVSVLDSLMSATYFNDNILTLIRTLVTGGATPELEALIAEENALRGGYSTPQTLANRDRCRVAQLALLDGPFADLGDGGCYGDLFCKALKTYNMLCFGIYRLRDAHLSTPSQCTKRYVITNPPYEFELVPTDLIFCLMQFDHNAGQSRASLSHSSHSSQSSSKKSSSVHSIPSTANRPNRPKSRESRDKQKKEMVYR

[6] = biological target: Calcium-activated potassium channel subunit alpha-1 (Rattus norvegicus) (UniProt Q62976); assay: Activation of rat Slo expressed in Xenopus laevis oocytes assessed as delayed channel closing 10 uM with 100 mV holding potential by patch-clamp electrophysiological method; type: cell-based; settings: Oocyte, filed as activator
[7] = biological target: Calcium-activated potassium channel subunit alpha-1 (Rattus norvegicus) (UniProt Q62976); assay: Activation of rat Slo expressed in Xenopus laevis oocytes assessed as shift in voltage at half activation at 10 uM with 100 mV holding potential by patch-clamp electrophysiological method; type: cell-based; settings: Oocyte, filed as activator
[8] = biological target: Calcium-activated potassium channel subunit alpha-1 (Rattus norvegicus) (UniProt Q62976); assay: Activation of rat Slo expressed in Xenopus laevis oocytes assessed as increase in intracellular maximum conductance at 10 uM with 100 mV holding potential by patch-clamp electrophysiological method relative to control; type: cell-based; settings: Oocyte, filed as activator
Rattus norvegicus [9] = assay: Inhibition of overactive bladder activity in spontaneously hypertensive rat assessed as reduction in voiding frequency at 50 mg/kg, po measured after 3 hrs relative to control; type: functional
Rattus norvegicus [10] = assay: Inhibition of overactive bladder activity in spontaneously hypertensive rat assessed as reduction in voiding frequency at 10 mg/kg, po measured after 3 hrs; type: functional, organism-based
[11] = Protein binding in rat plasma at 5 uM measured after 4 hrs by LC-MS/MS analysis; type: ADME, cell-free; settings: read-out: PPB
[12] = AUC (infinity) in Sprague-Dawley rat at 5 mg/kg, iv by LC-MS analysis; type: ADME, organism-based; set-up: time infinity, dose 5 mg/kg, route iv; settings: in vivo
[13] = Protein binding in human plasma at 5 uM measured after 4 hrs by LC-MS/MS analysis; type: ADME, cell-free; settings: read-out: PPB
AD293 [14] = assay: as §1; type: cell-based; settings: filed as activator, time 120.0 sec, DDE = dose-dependent effect
[15] = biological target: Calcium-activated potassium channel subunit alpha-1 (Rattus norvegicus) (UniProt Q62976); assay: Activation of rat Slo expressed in Xenopus laevis oocytes at 10 uM with 100 mV holding potential by patch-clamp electrophysiological method; type: cell-based; settings: Oocyte, filed as activator
[16] = AUC (0 to 8 hrs) in Sprague-Dawley rat at 5 mg/kg, iv by LC-MS analysis; type: ADME, organism-based; set-up: time < 8 hr, dose 5 mg/kg, route iv; settings: in vivo
[17] = Tmax in Sprague-Dawley rat at 10 mg/kg, po by LC-MS analysis; type: ADME, organism-based; settings: in vivo
[18] = Half life in Sprague-Dawley rat at 5 mg/kg, iv by LC-MS analysis; type: ADME, organism-based; settings: in vivo
[19] = Volume of distribution at steady state in Sprague-Dawley rat at 5 mg/kg, iv by LC-MS analysis; type: ADME, organism-based; settings: in vivo, read-out: Vdss
[20] = biological target: Calcium-activated potassium channel subunit alpha-1 (Rattus norvegicus) (UniProt Q62976); assay: Activation of rat Slo expressed in Xenopus laevis oocytes assessed as intracellular shift in voltage at half activation at 10 uM with 100 mV holding potential by patch-clamp electrophysiological method; type: cell-based; settings: Oocyte, filed as activator
[21] = Clearance in Sprague-Dawley rat at 5 mg/kg, iv by LC-MS analysis; type: ADME, organism-based; settings: in vivo
[22] = Oral bioavailability in Sprague-Dawley rat at 10 mg/kg by LC-MS analysis; type: ADME, organism-based; settings: in vivo
[23] = AUC (0 to 8 hrs) in Sprague-Dawley rat at 10 mg/kg, po by LC-MS analysis; type: ADME, organism-based; set-up: time < 8 hr, dose 10 mg/kg, route po; settings: in vivo
[24] = Half life in Sprague-Dawley rat at 10 mg/kg, po by LC-MS analysis; type: ADME, organism-based; settings: in vivo
[25] = Cmax in Sprague-Dawley rat at 10 mg/kg, po by LC-MS analysis; type: ADME, organism-based; set-up: dose 10 mg/kg, route po; settings: in vivo
AD293 [26] = assay: Activation of human Slo G803D/N806K mutant expressed in human AD293 cells assessed as increase in initial velocity at 1 uM measured at 2 secs interval for 120 secs by FluxOR based fluorescence assay; type: cell-based; settings: filed as activator, time 120.0 sec
AD293 [27] = assay: Activation of human Slo G803D/N806K mutant expressed in human AD293 cells assessed as increase in initial velocity at 5 uM measured at 2 secs interval for 4 secs by FluxOR based fluorescence assay; type: cell-based; settings: filed as activator, time 4.0 sec
[28] = AUC (infinity) in Sprague-Dawley rat at 10 mg/kg, po by LC-MS analysis; type: ADME, organism-based; set-up: time infinity, dose 10 mg/kg, route po; settings: in vivo
[29] = biological target: Calcium-activated potassium channel subunit alpha-1 (Rattus norvegicus) (UniProt Q62976); assay: Activation of rat Slo expressed in Xenopus laevis oocytes assessed as increase in maximum conductance at 10 uM with 100 mV holding potential by patch-clamp electrophysiological method relative to control; type: cell-based; settings: Oocyte, filed as activator

Work on `O=C(O)c1sc(=S)n2c1[nH]c(=O)c1ccccc12` yielded an Activity (AD293 [1]) of 1.38 RFU, an EC50 [2] of 12.7 µM and a V0 (AD293 [3]) of 0.38 s⁻¹.

In the case of `O=C(Nc1ccccc1)c1sc(=S)n2c1[nH]c(=O)c1ccccc12`, the Activity (AD293 [1]) is reported as 1.03 RFU and the V0 (AD293 [3]) is reported as 0.42 s⁻¹.

Molecule `Cc1ccc2c(c1)c(=O)[nH]c1c(C(=O)Nc3ccccc3)sc(=S)n12` has an Activity (AD293 [1]) of 1.16 RFU and a V0 (AD293 [3]) of 0.32 s⁻¹.

`O=C(Nc1cccc(F)c1)c1sc(=S)n2c1[nH]c(=O)c1cc(Br)ccc12` gave an Activity (AD293 [1]) of 2.85 RFU, a remaining at 0.5 h, 1 µM [4] of 56% and an EC50 [2] of 1.14 µM. It also gave a V0 (AD293 [3]) of 12.6 s⁻¹.

With `O=C(Nc1cccc(O)c1)c1sc(=S)n2c1[nH]c(=O)c1cc(Br)ccc12` the Activity (AD293 [1]) was 4.88 RFU, the EC50 [2] was 11.2 µM and the V0 (AD293 [3]) was 4.03 s⁻¹.

In the case of `O=C(Nc1cccc(Cl)c1)c1sc(=S)n2c1[nH]c(=O)c1cc(Br)ccc12`, the Activity (AD293 [1]) is reported as 3.56 RFU, the EC50 [2] is reported as 4.85 µM and the V0 (AD293 [3]) is reported as 16.1 s⁻¹.

Molecule `O=C(Nc1ccccc1)c1sc(=S)n2c1[nH]c(=O)c1cc(Cl)ccc12` has an Activity (AD293 [1]) of 1.18 RFU and a V0 (AD293 [3]) of 0.38 s⁻¹.

For `COc1cccc(NC(=O)c2sc(=S)n3c2[nH]c(=O)c2cc(Br)ccc23)c1`, the Activity (AD293 [1]) was 3.35 RFU, the EC50 [2] was 6.6 µM and the V0 (AD293 [3]) was 6 s⁻¹.

For `Cc1cccc(NC(=O)c2sc(=S)n3c2[nH]c(=O)c2cc(Br)ccc23)c1`, the Activity (AD293 [1]) was 4.98 RFU, the EC50 [2] was 5.74 µM and the V0 (AD293 [3]) was 9.77 s⁻¹.

In the case of `O=C(Nc1cccc(C(F)(F)F)c1)c1sc(=S)n2c1[nH]c(=O)c1cc(Br)ccc12`, the Activity [5] is reported as “Active”, the Activity [6] is reported as “Active” and the delta(V1/2) [7] is reported as 42.6 mV. It also gave a fold change (FC) [8] of 1.3, an Activity (AD293 [1]) of 3.35 RFU and an inhibition in vivo at 50 mg/kg (Rattus norvegicus [9]) of 33%. The inhibition (Rattus norvegicus [10]) was “Active”, the fraction unbound at 4 h, 5 µM [11] was less than 0.03 and the remaining at 0.5 h, 1 µM [4] was 76%. For the same molecule, the AUC [12] was 30.63 uM.hr/ml, the fraction unbound at 4 h, 5 µM [13] was less than 0.03 and the Activity (AD293 [14]) was “Dde”. The EC50 [2] was 2.89 µM, the V0 (AD293 [3]) was 16.8 s⁻¹ and the Activity [15] was “Active”. It also gave an AUC [16] of 26.8 uM.hr/ml, a Tmax [17] of 6.67 h and a half-life [18] of 6.59 h. For the same molecule, the Vd [19] was 1.83 L/kg, the delta(V1/2) [20] was 7.5 mV and the clearance [21] was 4.5 mL/min/kg. It also gave a bioavailability [22] of 25.4%, an AUC [23] of 13.64 uM.hr/ml and a half-life [24] of 8.5 h. The Cmax [25] was 1190 ng/mL, the Activity (AD293 [26]) was “Active” and the Activity (AD293 [27]) was “Active”. It also gave an AUC [28] of 17.2 uM.hr/ml and a fold change (FC) [29] of 1.5.

Work on `O=C(Nc1ccccc1)c1sc(=S)n2c1[nH]c(=O)c1ccc(Cl)cc12` yielded an Activity (AD293 [1]) of 1.56 RFU and a V0 (AD293 [3]) of 0.84 s⁻¹.

For `FC(F)(F)c1cc(NC(=S)Nc2ccc(Br)cc2-c2nnn[nH]2)cc(C(F)(F)F)c1`, the Activity (AD293 [1]) was 1.86 RFU, the EC50 [2] was 14.9 µM and the V0 (AD293 [3]) was 1.63 s⁻¹.

Work on `O=C(Nc1cccc(OC(F)(F)F)c1)c1sc(=S)n2c1[nH]c(=O)c1cc(Br)ccc12` yielded an Activity (AD293 [1]) of 4.37 RFU, an EC50 [2] of 3.82 µM and a V0 (AD293 [3]) of 14.8 s⁻¹.

Molecule `O=C(Nc1ccccc1)c1sc(=S)n2c1[nH]c(=O)c1ccc(Br)cc12` has an Activity (AD293 [1]) of 1.25 RFU and a V0 (AD293 [3]) of 0.56 s⁻¹.

Molecule `O=C(NCc1ccccc1)c1sc(=S)n2c1[nH]c(=O)c1ccccc12` has an Activity (AD293 [1]) of 1.1 RFU and a V0 (AD293 [3]) of 0.26 s⁻¹.

`Cc1ccc(NC(=O)c2sc(=S)n3c2[nH]c(=O)c2cc(Br)ccc23)cc1` gave an Activity (AD293 [1]) of 1.41 RFU and a V0 (AD293 [3]) of 0.71 s⁻¹.

Work on `NC(=O)c1sc(=S)n2c1[nH]c(=O)c1ccccc12` yielded an Activity (AD293 [1]) of 0.96 RFU and a V0 (AD293 [3]) of 0.32 s⁻¹.

`O=C(Nc1cc(C(F)(F)F)cc(C(F)(F)F)c1)c1sc(=S)n2c1[nH]c(=O)c1cc(Br)ccc12` showed an Activity (AD293 [1]) of 2.28 RFU, an EC50 [2] of 17.3 µM and a V0 (AD293 [3]) of 2.08 s⁻¹.

`O=C(Nc1ccccc1)c1sc(=S)n2c1[nH]c(=O)c1cc(Br)ccc12` showed an Activity (AD293 [1]) of 3.83 RFU, an EC50 [2] of 12.3 µM and a V0 (AD293 [3]) of 5.51 s⁻¹.

Work on `Cc1ccccc1NC(=O)c1sc(=S)n2c1[nH]c(=O)c1cc(Br)ccc12` yielded an Activity (AD293 [1]) of 3.68 RFU, an EC50 [2] of 4.6 µM and a V0 (AD293 [3]) of 9.4 s⁻¹.

`Cc1ccc2c(=O)[nH]c3c(C(=O)Nc4ccccc4)sc(=S)n3c2c1` gave an Activity (AD293 [1]) of 1.06 RFU and a V0 (AD293 [3]) of 0.23 s⁻¹.
